What was measured:
Format in all cases: cell-based, human
[1] = test system: MCF-7 cells; experiment: Cell proliferation assay (MTT/MTS), MCF-7; conditions: 72-120 h, MTT or MTS, mean±SEM
Source text: (§1) Hodgkin's lymphoma cell line (L-540) and human androgen-resistant prostate cancer cell line (PC3) were obtained from the German Collection of Microorganisms and Cell Cultures (Braunschweig, Germany). Human breast adenocarcinoma cell line MCF-7 cell line (HTB-22™) was obtained from the American Type Culture Collection (ATCC, Rockville, Md., USA). Human ovarian epithelial carcinoma-derived cancer cells A2780 and its cisplatin-resistant clone A2780cis were from Sigma Inc (St. Louis, Mo., USA), and the isogenic cisplatin-resistant 2780CP-16 cells were cultured as previously described (Siddik, Z. H.; Mims, B.; Lozano, G.; Thai, G. Independent pathways of p53 induction by cisplatin and X-rays in a cisplatin-resistant ovarian tumor cell line. Cancer Res. 1998, 58, 698-703, incorporated herein by reference in its entirety). A panel of non-small cell lung cancer (NSCLC) cell lines (H460, A549, H226, H838, H157, H1975, H2122, SKLU1 and H1299) was obtained from Dr. Garth Powis at MD Anderson Cancer Center. […]
(§2) PC3 and MCF-7 cells (2.5×10^3), A2780, A2780cis (4.0×10^3), A2780CP-16 and lung cancer cells (H460, A549, H226, H838, H157, H1975, H2122, SKLU1 and H1299) were seeded in 96-well flat-bottomed microplates (100 μL) and incubated for 24 h (to allow cell adhesion) before drug testing. […] After treatment, cell proliferation was evaluated by the MTS assay (Promega). […]

[2] = test system: WT-p53 A2780 ovarian cancer cells (CRISPR Control); experiment: MTT assay, A2780 transfected with CRISPR control plasmid; conditions: A2780 clone with control plasmid
Protocol: (§3) PC3 and MCF-7 cells (2.5×10^3), A2780, A2780cis (4.0×10^3), A2780CP-16 and lung cancer cells (H460, A549, H226, H838, H157, H1975, H2122, SKLU1 and H1299) were seeded in 96-well flat-bottomed microplates (100 μL) and incubated for 24 h (to allow cell adhesion) before drug testing. The medium was then removed and replaced with fresh medium which separately contained cisplatin and the gold(III) compounds 1 to 9 at increasing concentrations (from 0.01 to 100 μM) at 37° C. for 72-120 h. Each treatment was performed in triplicate. Cell proliferation was assayed using the MTT assay or the MTS assay. […] After treatment, cell proliferation was evaluated by the MTS assay (Promega). […] The dependency of the anticancer activity of the gold(III) compounds on the type of p53 or the absence of p53 was assessed in A2780 cells following p53 knockdown by CRISPR (Cong, L.; Ran, F. A.; Cox, D.; Lin, S.; Barretto, R.; Habib, N.; Hsu, P. D.; Wu, X.; Jiang, W.; Marraffini, L. A.; Zhang, F. Multiplex genome engineering using CRISPR/Cas systems Science. 2013, 15; 339 (6121), 819-23, incorporate herein by reference in its entirety). […]

[3] = test system: NSCLC cell lines (H460, A549, H226, H838, H157, H1975, H2122, SKLU1 and H1299); experiment: Cell proliferation assay, NSCLC panel grouped by p53 status; conditions: range over the NSCLC panel (WT-, Mut- and Null-p53)
Source text: as §1, §2

[4] = test system: A2780 ovarian cancer cells (CRISPR p53 KO); experiment: MTT assay, A2780 with p53 knocked out by CRISPR/Cas9; conditions: A2780 clone with p53 knocked out
Protocol: as §3

[5] = test system: A2780 cells; experiment: Cell proliferation assay (MTT/MTS), A2780; conditions: 72-120 h, MTT or MTS, mean±SEM
Source text: as §1, §2

[6] = test system: PC3 cells; experiment: Cell proliferation assay (MTT/MTS), PC3; conditions: 72-120 h, MTT or MTS, mean±SEM
Source text: as §1, §2

[7] = test system: L-540, PC3, MCF-7, A2780 and A2780cis cell lines; experiment: In vitro cytotoxicity across the cell line panel, compared with cisplatin; conditions: all cell lines tested
Protocol: as §3

[8] = test system: L-540 cells; experiment: Cell proliferation assay (MTS), L-540; conditions: mean±SEM
Source text: as §1, §2

[9] = test system: A549 cells; experiment: Dose-response curves in A549 cells; conditions: 5 days after contacting
Protocol: (§4) Gold(III) compounds were dissolved in DMSO (final concentration of the gold(III) complexes was 10 mM) and stored at −80° C. in volumes of 500 μL or aliquoted into volumes of 10 μL and stored at −20° C. (used once without refreezing). They were then diluted in RPMI medium immediately before use. The culture medium with the same amount of drug-free DMSO was used as negative control.
as §3, with “h.” for “h. Each treatment was performed in triplicate. Cell proliferation was assayed using the MTT assay or the MTS assay.”

[10] = test system: cisplatin-resistant A2780cis cells; experiment: Cell proliferation assay (MTT/MTS), A2780cis; conditions: for IC50: cisplatin-resistant A2780cis cells, 72-120 h, MTT or MTS, mean±SEM
Source text: Hodgkin's lymphoma cell line (L-540) and human androgen-resistant prostate cancer cell line (PC3) were obtained from the German Collection of Microorganisms and Cell Cultures (Braunschweig, Germany). Human breast adenocarcinoma cell line MCF-7 cell line (HTB-22™) was obtained from the American Type Culture Collection (ATCC, Rockville, Md., USA). Human ovarian epithelial carcinoma-derived cancer cells A2780 and its cisplatin-resistant clone A2780cis were from Sigma Inc (St. Louis, Mo., USA), and the isogenic cisplatin-resistant 2780CP-16 cells were cultured as previously described (Siddik, Z. H.; Mims, B.; Lozano, G.; Thai, G. Independent pathways of p53 induction by cisplatin and X-rays in a cisplatin-resistant ovarian tumor cell line. Cancer Res. 1998, 58, 698-703, incorporated herein by reference in its entirety). A panel of non-small cell lung cancer (NSCLC) cell lines (H460, A549, H226, H838, H157, H1975, H2122, SKLU1 and H1299) was obtained from Dr. Garth Powis at MD Anderson Cancer Center. Cell lines were further authenticated for their origin by BMR Genomics according to Cell ID System (Promega) protocol and using Genemapper ID Ver 3.2.1 to identify DNA short tandem repeat profiles. The […] cisplatin-resistant subclone (A2780cis) was maintained by weekly treatment with 1 μM cisplatin (Casagrande, N.; Celegato, M.; Borghese, C.; Mongiat, M.; Colombatti, A.; Aldinucci, D. Preclinical activity of the liposomal cisplatin Lipoplatin in ovarian cancer. Clin. Cancer Res. 2014, 20(21), 5496-5506, incorporated herein by reference in its entirety).
Cells were cultured in 5% CO2 in RPMI (for L-540, A2780, A2780cis, 2780CP-16, PC3 and the panel of lung cancer cells) or DMEM (for MCF-7 cells) media supplemented with 10% heat-inactivated fetal calf serum (FCS; Sigma-Aldrich-Italy), 0.2 mg/ml penicillin/streptomycin and 0.1% (w/v) L-gluamine (Biocrom) at 37° C. in a 5% CO2 fully humidified atmosphere.
as §4, §2

[11] = test system: cisplatin-resistant 2780CP cells; experiment: Cell proliferation assay, 2780CP-16; conditions: 2780CP versus A2780
Source text: Hodgkin's lymphoma cell line (L-540) and human androgen-resistant prostate cancer cell line (PC3) were obtained from the German Collection of Microorganisms and Cell Cultures (Braunschweig, Germany). Human breast adenocarcinoma cell line MCF-7 cell line (HTB-22™) was obtained from the American Type Culture Collection (ATCC, Rockville, Md., USA). […]
as §3, with “testing.” for “testing. The medium was then removed and replaced with fresh medium which separately contained cisplatin and the gold(III) compounds 1 to 9 at increasing concentrations (from 0.01 to 100 μM) at 37° C. for 72-120 h. Each treatment was performed in triplicate. Cell proliferation was assayed using the MTT assay or the MTS assay.”

fold higher IC50 in A2780cis than in A2780 ([10]; A2780cis versus A2780)	Compound	IC50 [1]	IC50 [2]	IC50 [3]	IC50 [4]	IC50 [5]	IC50 [6]	activity compared with cisplatin [7]	IC50 [8]	potency from dose-response curves in A549 cells [9]	IC50 [10]	fold cisplatin resistance of 2780CP cells [11]	Fold resistance A2780cis/A2780 ratio ([10]; ratio of IC50 in A2780cis to IC50 in A2780)
–	CN(C)C(=S)[S][Au+2].Cc1ccc(-c2ccc(C)cn2)nc1.[Cl-].[Cl-] [Compound 4]	280 ± 20 nM	87 ± 3 nM	120 to 310 nM	83 ± 3 nM	280 ± 30 nM	590 ± 50 nM	generally more effective than cisplatin	2700 ± 220 nM	greater potencies than compounds 3, 6, and 9	170 ± 10 nM	–	–
about 7 fold	cis-[Pt(NH3)2Cl2] [Cisplatin, reference compound]	22200 ± 200 nM	–	–	–	1500 ± 100 nM	3300 ± 300 nM	–	2500 ± 100 nM	–	10400 ± 900 nM	20 fold	6.93

Source: patent US10385072B2, “Gold(III) complexes as anticancer agents and a method of treating cancer” (King Fahd University of Petroleum and Minerals, priority 2017, dated 2019)
